Data: patent publication EP4389132A1 (priority 2021, dated 2023)

What was measured:
coronavirus (SARS-CoV-2) = experiment: Antiviral test of processed non-woven fabric according to ISO 18184, plaque method; assay type: cell-based; settings: polyethylene terephthalate non-woven fabric immersed in 2% (V/V) aqueous solution, pickup rate 200%, dried at 110°C; control 6.63
[1] = system: influenza A/Kitakyushu/159/93 (H3N2); experiment: Antiviral properties of treated natural rubber glove film, plaque method on MDCK cells; assay type: cell-based, influenza virus; settings: glove immersed in 1% (V/V) aqueous solution for 10 minutes, dried; virus contact 1 hour at room temperature; control 6.78
[2] = molecular target: T1, binding of SARS-CoV-2 to ACE2 (UniProt P0DTC2+Q9BYF1); experiment: COVID-19 Spike-ACE2 Binding Assay Kit (RayBiotech): ACE2 protein binding to S-protein adsorption plate, absorbance at 450 nm; set-up: species or system human
T1 construct: purchased RayBiotech Life, Inc

SMILES: O[C@H]1[C@H](O)[C@@H](O)[C@H](O)[C@@H](O)[C@H]1O [Myo-inositol, myo-inositol]
- Viral infectivity titer (coronavirus (SARS-CoV-2)): 2.7 PFU/0.1 mL, Log10
- Viral infectivity titer [1]: 4.1 PFU/0.1 mL, Log10
- Virus binding rate ([2]; Concentration 2 % (V/V), relative binding rate, control = 1.00): 1.00
- binding inhibitory effect on the binding of SARS-CoV-2 to ACE2 (in words) ([2]; summary of Table 1): no binding inhibitory effect was observed
